The assay relates to A2780. Nature of the assay: Antiproliferative activity against human A2780 cells. Type of assay: cell-based.

pIC50: −log10 of the molar value.

Consider two molecules from ChEMBL document CHEMBL1142112, “Antiproliferative xanthones of Terminalia calcicola from the Madagascar rain forest” (J Nat Prod, 2007).

`CC(C)=CCc1c(O)c(O)cc2oc3c4c(cc(O)c3c(=O)c12)OC(C)(C)C=C4`: the pIC50 (in general, the IC50 on a negative log10 scale, so that one unit is a factor of ten) is 5.09.

`CC(C)=CCc1c(O)ccc2oc3c(O)c4c(c(O)c3c(=O)c12)C=CC(C)(C)O4` [TERMICALCICOLANONE A] had a pIC50 of 4.39.
